# From patent US9162992B2, “Compounds and compositions for treatment of breathing control disorders or diseases” (GALLEON PHARMACEUTICALS, INC., priority 2010, dated 2015)
# What was measured:
# [1] = tested on: midazolam-induced respiratory depression; assay: Benzodiazepine-induced respiratory depression (BIRD), midazolam, rat plethysmography; type: in vivo
# Method: Compound (XXXVI) was dissolved in 20% hydroxypropyl-beta-cyclodextran in sterile water, and titrated to a pH of 4-8 using pH paper and NaOH or HCl, resulting in a clear, stable solution at a concentration of 1.5 mg/mL. Other compounds: morphine sulfate, supplied as 10 mg/mL solution by (Baxter, Inc) and midazolam, supplied as 5 mg/mL solution (Hospira, Inc.)
# Male Sprague-Dawley rats (Harlan, Inc.), 250-350 g at time of dosing, surgically prepared by Harlan with jugular vein cannulas. 12 Chamber Plethysmography System with temperature/humidity compensation (Epstein et al., 1980, J. Apply Physiol. 49:1107-1115); From Buxco, Inc. (PLY 3223; Buxco, Inc, Wilmington, N.C., USA) Biosystem XA, software, v2.11.1. Customized 12 site automated infusion system (Harvard Apparatus; Instech, Inc)
# Rat whole body plethysmography was used to evaluate and quantify minute ventilation and the pattern of breathing. A respiratory waveform was generated from the exchange of air between the animal and the chamber. This exchange induced changes in air volume that were measured with a pressure transducer, constituting the respiratory waveform. Atmospheric temperature and humidity were also measured using temperature and humidity probes which sampled chamber conditions. A compensation factor was then determined and applied to the respiratory waveform using a standardized algorithm (Epstein et al., 1980, J. Apply Physiol. 49:1107-1115) to compensate for respiratory conditioning, which was reported as the parameter COMP (see appendix).
# All animals were acclimated to plethysmography chambers for at least 1 hour, or until animals were no longer restless (up to 2 hours) prior to data collection. Bolus intravenous (IV) dosing was administered at a rate of 5-10 seconds per dose, and catheters were flushed with 350 μL of sterile saline to be sure of complete drug delivery. […] All plethysmography data was recorded automatically by the Buxco equipment.
# Respiratory data were collected on a breath-by-breath basis and averaged into 1 min time bins for data analysis. For each designated acquisition phase, which is the time between doses, percent change from pre-treatment baseline values were calculated for each cohort on multiple ventilatory parameters including respiratory frequency (f), tidal volume (TV), accumulated volume (AV), minute ventilation (MV), inspiratory time (Ti), expiratory time (Te), peak inspiratory flow (PIF), peak expiratory flow (PEF), relaxation time (RT), end inspiratory pause (EIP), end expiratory pause (EEP), delta volume (DV), expiratory flow at 50% TV (EF50), rejection index (Rinx), compensation (Comp), enhanced pause (Penh), pause (PAU), PEF rate (Rpef), relative humidity (RH), and atmospheric temperature (Temp). […]
# human KCNK9/TASK-3 = molecular target: T1, human KCNK9/TASK-3 (Homo sapiens, UniProt Q9NPC2); assay: Thallium flux through human TASK-3 (KCNK9-HEK cells); type: cell-based; conditions: Tl+ flux; 3 nM to 30 μM; read-out: hTASK-3 IC50
# T1 construct: expressed in transfected cells; host or cells: HEK cells (tetracycline-inducible)
# Method: CHO cells expressing recombinant tetracycline-inducible rat KCNK3/TASK-1 (KCNK3-CHO cells) were plated in poly-D-lysine coated 384-well plates at a density of 6,000 cells/well (50 μl/well of 120,000 cells/mL) and allowed to incubate for 72 hrs in the presence of 5% CO2 and 1 μg/mL tetracycline at 30° C. HEK cells expressing recombinant tetracycline-inducible human KCNK9/TASK-3 (KCNK9-HEK cells) were plated at a density of 15,000 cells per well (50 μl/well, 300,000 cells/mL) and incubated overnight at 37° C. and 5% CO2 in the presence of 1 μg/mL tetracycline.
# Drug plates were generated from 10 mM 100% DMSO mother plates. Compounds were transferred to 384-well drug plates and titrated with sequential 1:3 dilutions in 100% DMSO for a total of 9 dilutions. A dilution plate is made by taking 2.4 μl from the mother plate and adding to […] of assay buffer for a 12% DMSO dilution plate. From this dilution plate, a final daughter plate is generated by taking 1 μA of the dilution plate and adding to 40 μA of assay buffer for a final DMSO concentration of 0.3%. Each compound was evaluated in duplicate and the concentration range evaluated was 3 nM to 30 μM.
# When thallium was added to extracellular solution with a stimulus to open channels, Tl^+ flowed down its concentration gradient into the cells and channel activity was detected with an indicator dye, FluxOR™, that increased in cytosolic fluorescence. The FluxOR™ indicator dye was loaded into cells as a membrane permeable acetoxymethyl ester. On the day of each assay, FluxOR™ assay buffer was made fresh from Hank's Balanced Saline Solution (HBSS) buffered with 20 mM HEPES and pH adjusted to 7.4 with NaOH. Dye loading solution was prepared per manufacturer's instructions, and 25 μl of dye solution applied to each well with a multidropper after plating medium was removed manually from cells. Dye was allowed to load for 90 minutes at room temperature in the dark.
# After the 90 min dye loading incubation and subsequent manual dye removal, 24 μl of the drug daughter plate was transfer to cell plates by a cybi-well system and then incubated at room temperature for 20 minutes to allow for equilibration within wells. Stimulation buffer was prepared from 5× chloride-free buffer, thallium, and potassium sulfate containing 5 times the desired final assay concentration of 10 mM K^+ 2.8 mM Tl^+. Cell plates were then transferred to an FDSS 6000 kinetic imaging plate reader (Hamamatsu). Fluorescence at 525 nm (excitation 488 nm) was measured for 10 seconds at 1 Hz to establish baseline for the entire plate. After baseline was established, 6 μl/well of stimulation buffer was added and fluorescence signal recorded for another 140 seconds.
# From the fluorescence signals in the absence and presence of Galleon compounds, Inhibitory concentration curves were plotted and IC50 values were estimated using a curve fitting algorithm.
# T1 sequence (Q9NPC2 whole entry): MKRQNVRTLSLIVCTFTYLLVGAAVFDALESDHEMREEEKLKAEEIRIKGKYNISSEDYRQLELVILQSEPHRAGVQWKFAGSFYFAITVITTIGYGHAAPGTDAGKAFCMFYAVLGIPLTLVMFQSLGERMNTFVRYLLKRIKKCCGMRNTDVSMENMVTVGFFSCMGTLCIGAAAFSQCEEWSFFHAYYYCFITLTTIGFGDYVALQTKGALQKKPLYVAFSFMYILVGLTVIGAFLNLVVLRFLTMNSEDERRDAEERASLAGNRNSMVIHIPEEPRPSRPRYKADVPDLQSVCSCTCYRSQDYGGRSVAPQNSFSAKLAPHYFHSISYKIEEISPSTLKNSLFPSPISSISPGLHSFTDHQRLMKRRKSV
compound,measurement,setting,value
"CCCNc1nc(NCCC)nc(N(C)OC)n1.O=S(=O)(O)O [XXXVI, N-(4,6-Bis-n-propylamino-[1,3,5]triazin-2-yl)-N,O-dimethyl-hydroxylamine hydrogen sulfate]","effect on f, Ti, RT, EIP, dv, EF50, Rinx, Comp, Penh, PAU, Rpef, RH and Temp",[1]; 0.1 mg/kg/min infusion 30 min,had no obvious effect
same,"effects of midazolam on MV, TV, AV, Te, PIF, PEF and EEP",[1]; 0.1 mg/kg/min infusion 30 min,had an effect to reverse the effects of midazolam
same,reversal of the BIRD induced decrease in MV,"[1]; 0.1 mg/kg/min infusion, end of infusion period (t=38)",100
same,adverse behavioral effects,"[1]; rats, doses tested",no adverse behavioral effects observed
same,IC50,human KCNK9/TASK-3,> 30 µM
